Key:
Type in all cases: in vivo
[1] = test system: serum calcium, serum phosphate, parathyroid hormone, calcitonin; assay: Serum calcium, phosphate, parathyroid hormone and calcitonin upon administration; details: about 550 mg; data not shown
calcidiol = assay: Serum calcidiol after single oral dose in human volunteers; details: single oral dosage of 552 mg, five subjects, 30-120 minutes after administration
Experimental: (§1) In a typical example, five subjects were administered a single dosage of 552 mg calcium fructoborate upon informed consent, and blood was drawn immediately prior to administration and after 30, 60, 90, and 120 minutes. Calcitriol was measured using a standard radioimmuno assay from a commercial lab starting from 4 ml whole blood (numerous alternative methods are also deemed suitable, including those described in U.S. Pat. Nos. 4,585,741, 5,202,266, and 6,455,714). From each sample and for each time point, concentrations of calcidiol and calcitriol in serum were measured and the data are shown in FIGS. 1A to 1D. FIG. 1A depicts the effect of oral administration of calcium fructoborate on blood calcitriol 30 minutes after oral administration, FIG. 1B depicts the effect of oral administration of calcium fructoborate on blood calcitriol 60 minutes after oral administration, and FIG. 1C depicts the effect of oral administration of calcium fructoborate on blood calcitriol 90 minutes after oral administration. FIG. 1D depicts the effect of oral administration of calcium fructoborate on blood calcitriol 90-120 minutes after oral administration.

blood calcitriol = assay: Blood/serum calcitriol after single oral dose in human volunteers (radioimmuno assay)
Experimental: as §1
FIGS. 2A and 2B depict a graphic illustration of the results from this study where the biphasic mode of modulation of calcitriol is clearly seen between times 0-90 minutes (decrease) and 90-120 minutes (increase). In most cases, it is expected that the so increased calcitriol level will drop back to starting levels within 6 hours or less, and more typically within 4 hours, or less (data not shown). FIG. 3 depicts another graphic representation in which the exclusive modulation of calcitriol versus calcidiol is shown.
While not wishing to be bound by any theory or hypothesis, the inventors contemplate that the compounds according to the inventive subject matter increase serum concentration of calcitriol in a bi-modal manner. During the first 60 minutes, a moderate increase is observed in the case of subjects with low initial level of calcitriol (<30 pg/ml), but not in subjects with initial level >30 pg/ml. […]

[2] = Intact Ca-Fructoborate in serum of orally treated fasted mice by LC-MS; details: oral gavage 600 mcg/mouse; for Intact Ca-fructoborate in serum: fasted mice
Experimental: Using LC-MS, Ca-Fructoborate was detected and measured from serum samples at concentrations as low as 0.2 ppm and higher. This method was used to analyze the presence and amount of Ca-Fructoborate in serum collected from mice treated orally (gavage) with Ca-Fructoborate in liquid at dose 600 mcg/mouse for 30 and 60 minutes.
Detection of intact Ca-Fructoborate in sera collected from fasted mice treated orally with the compound for 30 or 60 minutes. Collected sera were diluted in running buffer and filtered through 0.45 PVDF filter. This solution was analyzed by LCMS for Ca-Fructoborate as the fructoborate anion.

## calcium fructoborate
[1]
  change of serum calcium concentration: 5-15%
  change of serum concentration of calcitonin: 10-30%
  change of serum concentration of parathyroid hormone: 10-30%
  change of serum phosphate concentration: 5-15%
calcidiol
  calcidiol concentration: remained unaffected
Blood calcitriol; single oral 552 mg, 0-90 minutes
  modulation of calcitriol between times 0-90 minutes: decrease
Blood calcitriol; single oral 552 mg, 90-120 minutes
  modulation of calcitriol between times 90-120 minutes: increase
Blood calcitriol; single oral dosage of 552 mg, five subjects, 30-120 minutes after administration
  calcitriol serum concentration: significantly and acutely affected
[2]; 30 minutes
  Intact Ca-fructoborate in serum: 449 µg/mL
[2]; 60 minutes
  Intact Ca-fructoborate in serum: 556 µg/mL
[2]; mice (20 g by average)
  bioavailability of the compound: 556 mcg/ml of serum
[2]; mice, 30 and 60 minutes
  delivery from intestine to bloodstream: in intact form and in time-dependent manner

From patent publication US9271994B2, “Compositions and methods related to calcitriol” (VDF Futureceuticals, Inc., priority 2009, dated 2016)
